Laboratory results as given in article PMC8973346, “Dissecting The role of Plasmodium metacaspase-2 in malaria gametogenesis and sporogony” (Emerging Microbes & Infections, 2022).

Target: T1, PfMCA-2 (metacaspase-2) (Plasmodium falciparum, UniProt Q8IL84)
T1 construct: gene MCA2; catalytic domain
Assay: fluorogenic Z-GRR-AMC cleavage assay with recombinant enzyme, Michaelis-Menten nonlinear regression
Type: biochemical

T1 sequence (Q8IL84 1650-2020): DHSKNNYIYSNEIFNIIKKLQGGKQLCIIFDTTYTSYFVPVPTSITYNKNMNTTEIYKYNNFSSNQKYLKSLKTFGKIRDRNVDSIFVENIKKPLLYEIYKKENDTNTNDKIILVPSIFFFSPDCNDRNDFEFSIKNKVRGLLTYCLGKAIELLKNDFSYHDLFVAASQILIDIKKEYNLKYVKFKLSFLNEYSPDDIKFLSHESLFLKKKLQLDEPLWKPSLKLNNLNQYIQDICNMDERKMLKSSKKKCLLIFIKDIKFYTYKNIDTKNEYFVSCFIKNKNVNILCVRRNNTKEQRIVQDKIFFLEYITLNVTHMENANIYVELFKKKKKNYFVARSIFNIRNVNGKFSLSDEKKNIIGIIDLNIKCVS

Ki | Structure (SMILES)
2.1 ± 0.12 nM | CC(C)c1ccc(CNc2ccc3oc(CC4CCCCC4)nc3c2)cc1 [C-532]
1.62 ± 0.22 nM | CCCc1ccc(CNc2ccc3oc(CC4CCCCC4)nc3c2)cc1 [C-533]
